Laboratory results from PubChem BioAssay (NCI).
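Method: 48-hour compound exposure of cells in 96-well plates, five concentrations, linear interpolation of endpoints. At the GI50, growth is halved. TGI is the concentration that stops growth completely.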

Columns and labels:
Assay in all cases: NCI tumour cell line growth inhibition, 48 h
HCT-116 colon = system: HCT-116 colon
IGROV1 ovarian = system: IGROV1 ovarian
EKVX NSCLC = system: EKVX NSCLC
LOX IMVI melanoma = system: LOX IMVI melanoma
SN12C renal = system: SN12C renal
M14 melanoma = system: M14 melanoma
HOP-92 NSCLC = system: HOP-92 NSCLC
SK-MEL-28 melanoma = system: SK-MEL-28 melanoma
HCC-2998 colon = system: HCC-2998 colon
TK-10 renal = system: TK-10 renal

Compound	TGI (HCT-116 colon) [µM]	TGI (IGROV1 ovarian) [µM]	TGI (EKVX NSCLC) [µM]	TGI (LOX IMVI melanoma) [µM]	TGI (SN12C renal) [µM]	TGI (M14 melanoma) [µM]	TGI (HOP-92 NSCLC) [µM]	TGI (SK-MEL-28 melanoma) [µM]	TGI (HCC-2998 colon) [µM]	TGI (TK-10 renal) [µM]	GI50 (HCT-116 colon) [µM]	GI50 (IGROV1 ovarian) [µM]	GI50 (EKVX NSCLC) [µM]	GI50 (LOX IMVI melanoma) [µM]	GI50 (SN12C renal) [µM]	GI50 (M14 melanoma) [µM]	GI50 (HOP-92 NSCLC) [µM]	GI50 (SK-MEL-28 melanoma) [µM]	GI50 (HCC-2998 colon) [µM]	GI50 (TK-10 renal) [µM]
CCOc1cccc2cccnc12	> 100	> 100	> 100	> 100	> 100	> 100	> 100	> 100	> 100	> 100										
C=CC[n+]1c(/C=C2\Sc3ccccc3N2C)sc(-c2ccccc2)c1-c1ccccc1	11.5	13.7	12.9	1.54	1.47	1.59	0.571	7.72	15.7	3.35	0.36	0.45	0.478	0.34	0.298	0.373	0.155	0.421	0.401	0.307
COC(=O)C1=C(O)C(C(=O)OC)[C@@]2(O)[C@@H](C(=O)OC)C(c3ccccc3C(F)(F)F)C[C@@H]1[C@@H]2C(=O)OC (some centres undefined)	18.8		19.4		15.2	47.4	37.9	14.5	27.2	25.5	6.34		6.36		4.33	13.9	15.8	2.13	14.2	12.1
CCOC(=O)C(=C=Cc1cccs1)C(=O)c1ccccc1	27.7	34.6	31	24.9	29.3	28.2	19.1	28	31.2	28.5										
COC(=O)C(=O)C(C(=O)C(=O)Nc1ccc(Cl)cc1Cl)c1nc2ccc(Cl)cc2[nH]c1=O (centres undefined)	> 100	> 100	> 100	> 100	> 100	> 100	> 100	> 100	> 100	> 100										
CC(=O)OCC1OC(n2c(-c3ccc(N)cc3)cc(-c3ccco3)c(C#N)c2=O)C(OC(C)=O)C(OC(C)=O)C1OC(C)=O (centres undefined)	> 50	> 50	> 50	> 50	> 50	> 50	33.9	> 50	> 50	> 50										
CCCCCCCCOCC(O)COC (centres undefined)	> 100	> 100		> 100	> 100	> 100	> 100	> 100	> 100	> 100										
O=C(O)C(=O)/C=C\c1ccc(Cl)cc1	> 100	> 100	> 100	> 100	> 100	> 100	> 100	> 100	> 100	> 100										
COc1ccc(OC)c(-c2cc(-c3ccc(Cl)cc3)nn2-c2ccc(S(N)(=O)=O)cc2)c1		> 100	27.5		28.2	19.7	62.5		21.6	22.7		21.6	11.9		14.5	7.73	19.2		7.51	6.56
COC(=O)C1=C(O)C(C(=O)OC)[C@@]2(O)[C@@H](C(=O)OC)C(c3ccc(OC(=O)C(Cc4ccccc4)NC(C)=O)cc3)C[C@@H]1[C@@H]2C(=O)OC (some centres undefined)	45.1	> 100	> 100	32.2	62.1	47.2	58.8			44.1	20.6	45.7	95.7	18	22.6	20.7	21.4			18.5
COC(=O)c1ccc2c(c1)[n+](=O)c(C(C)=O)c(C(F)(F)F)n2[O-]	2.76	3.39	4.35	3.2		3.2	3.14	13.2	3.18	6.05	1.45	1.75	1.94	1.7		1.75	1.48	4.31	1.78	2.77
CC(C)(C)NC(=O)C12C3C4C1C1C2C3C41I (centres undefined)	> 100			> 100	> 100		> 100	> 100	> 100	> 100										
NC(N)=Nc1nc2cc(N)ccc2o1	> 100		> 100	> 100	> 100	> 100	> 100	> 100	> 100	> 100										
O=C(N/C(=C\c1cc(Cl)ccc1Cl)c1nc2ccccc2[nH]1)c1ccccc1			> 100		> 100	69.7	31.5	> 100	37.8	> 100										
N#CC1=C(N)NC(=S)NC1c1ccc(-c2ccc(-c3nc4ccccc4s3)cc2)o1 (centres undefined)	31.8	> 50	> 50	22.8	> 50	> 50	> 50			> 50	13	32.1	> 50	10.6	> 50	20.8	> 50			37.9
C=C1c2c(C)nn(-c3ccccc3)c2N(C)C23C[C@@H]1C1(C)c4c(C)nn(-c5ccccc5)c4N(C)C(C)(C[C@H]12)C3 (some centres undefined)	> 100	> 100			> 100		5.53	> 100	> 100	24.5	3.72	11.9			9.92		0.549	22.6	6.21	4.77
CC(C)=CCNc1ncnc2c1ncn2C1OC(COP(=O)(O)O)C(O)C1O (centres undefined)	25.5	> 100		2.55	> 100	> 100	5.1	> 100	> 100	5.59	2.07	11		0.581	3.94	10.4	1.63	> 100	10.7	2.06
